Assay results published in PMC8585718 (European journal of medicinal chemistry, 2021).
Counter-ions that a name gives are not always drawn.

Experiments:
[1] = target: ZVpro (Zika virus NS2B-NS3 protease) (Zika virus, UniProt A0A024B7W1); test: Fluorescence-based biochemical assay of ZVpro inhibition; conditions: for ZVpro IC50: enzyme 1 nM, substrate 10 μM, HEPES pH 7.3
[2] = target: DV2pro (NS2B-NS3 protease from DENV serotype-2) (Dengue virus type 2, UniProt P29990); test: Fluorescence-based biochemical assay of DV2pro inhibition; conditions: IC50 vs substrate concentration 0.5 to 50 μM
ZIKV-FLR in U87 cells = test: Anti-ZIKV activity in U87 cells; format: cell-based, Zika virus

Question: With `N#Cc1ccc(-c2ccc3c(C(=O)NC4CCNCC4)coc3c2)cc1` [Compound 69, 6-(4-Cyanophenyl)-N-(piperidin-4-yl)benzofuran-3-carboxamide Hydrochloride] as the compound, how does the IC50 [1] read?
Answer: The IC50 was greater than 50 µM.

Question: Which IC50 [1] does the source give for `CC(C)(C)c1ccc(-c2ccc3sc(C(=O)NC4CCNCC4)cc3c2)cc1` [Compound 11, 5-(4-(Tert-butyl)phenyl)-N-(piperidin-4-yl)benzo[b]thiophene-2-carboxamide Hydrochloride] here?
Answer: The IC50 was 3.2 µM.

Question: How did the IC50 [1] turn out when `CC(C)(C)c1ccc(-c2ccc3[nH]c(C(=O)NCC4CCNCC4)nc3c2)cc1` [Compound 10, 5-(4-(tert-butyl)phenyl)-N-(piperidin-4-ylmethyl)-1H-benzo[d]imidazole-2 carboxamide Hydrochloride] was run?
Answer: Its IC50 is 3.1 µM.

Question: `O=C(NCC1CCNCC1)c1c[nH]c2cc(-c3ccc(F)cc3)ccc12` [Compound 20, 6-(4-fluorophenyl)-N-(piperidin-4-ylmethyl)-1H-indole-3-carboxamide Hydrochloride] was tested. Which IC50 [1] did it give?
Answer: The IC50 was greater than 50 µM.

Question: With `CC(C)(C)c1ccc(-c2ccc3cc(C(=O)NCC4CCNCC4)[nH]c3c2)cc1` [Compound 8, 6-(4-(Tert-butyl)phenyl)-N-(piperidin-4-ylmethyl)-1H-indole-2-carboxamide Hydrochloride] as the compound, how does the IC50 [1] read?
Answer: The IC50 was 1.3 µM.

Question: Which IC50 [1] does the source give for `COc1cc(-c2ccc3c(C(=O)NCC4CCNCC4)c[nH]c3c2)cc(OC)c1OC` [Compound 19, N-(piperidin-4-ylmethyl)-6-(3,4,5-trimethoxyphenyl)-1H-indole-3-carboxamide Hydrochloride] here?
Answer: The IC50 was greater than 50 µM.

Question: For `O=C(NCC1CCNCC1)c1c[nH]c2ccc(-c3ccc(F)cc3F)cc12` [Compound 17, 5-(2,4-difluorophenyl)-N-(piperidin-4-ylmethyl)-1H-indole-3-carboxamide Hydrochloride], which IC50 [1] is on record?
Answer: Its IC50 is greater than 50 µM.

Question: `N#Cc1ccc(-c2ccc3[nH]cc(C(=O)NC4CCNCC4)c3c2)cc1` [Compound 14, 5-(4-cyanophenyl)-N-(piperidin-4-yl)-1H-indole-3-carboxamide Hydrochloride] was tested. Which IC50 [1] did it give?
Answer: Its IC50 is greater than 50 µM.

Question: Which IC50 [1] does the source give for `O=C(NCC1CCNCC1)c1cc2cc(-c3cccnc3)ccc2[nH]1` [Compound 33, N-(Piperidin-4-ylmethyl)-5-(pyridin-3-yl)-1H-indole-2-carboxamide Hydrochloride] here?
Answer: The IC50 was greater than 50 µM.

Question: With `COc1cc(-c2ccc3[nH]cc(C(=O)NC4CCNCC4)c3c2)cc(OC)c1OC` [Compound 15, N-(piperidin-4-yl)-5-(3,4,5-trimethoxyphenyl)-1H-indole-3-carboxamide Hydrochloride] as the compound, how does the IC50 [1] read?
Answer: Its IC50 is greater than 50 µM.

Question: For `CC(C)(C)c1ccc(-c2ccc3cc(C(=O)NC4CCNCC4)sc3c2)cc1` [Compound 12, 6-(4-(Tert-butyl)phenyl)-N-(piperidin-4-yl)benzo[b]thiophene-2-carboxamide Hydrochloride], which IC50 [1] is on record?
Answer: Its IC50 is 2.1 µM.

Question: `NCc1ccc(-c2ccc3c(C(=O)NCC4CCNCC4)c[nH]c3c2)cc1` [Compound 23, 6-(4-(aminomethyl)phenyl)-N-(piperidin-4-ylmethyl)-1H-indole-3-carboxamide Hydrochloride] was tested. Which IC50 [1] did it give?
Answer: The IC50 was greater than 50 µM.

Question: Which IC50 [1] does the source give for `O=C(NCC1CCNCC1)c1c[nH]c2cc(-c3ccccc3F)ccc12` [Compound 21, 6-(2-fluorophenyl)-N-(piperidin-4-ylmethyl)-1H-indole-3-carboxamide Hydrochloride] here?
Answer: Its IC50 is greater than 50 µM.

Question: For `O=C(NCC1CCNCC1)c1c[nH]c2ccc(-c3ccc(F)cc3)cc12` [Compound 16, 5-(4-fluorophenyl)-N-(piperidin-4-ylmethyl)-1H-indole-3-carboxamide Hydrochloride], which IC50 [1] is on record?
Answer: Its IC50 is greater than 50 µM.

Question: With `CC(C)(C)c1ccc(-c2ccc3c(C(=O)NCC4CCNCC4)c[nH]c3n2)cc1` [Compound 9, 6-(4-(tert-butyl)phenyl)-N-(piperidin-4-ylmethyl)-1H-pyrrolo[2,3-b]pyridine-3-carboxamide Hydrochloride] as the compound, how does the IC50 [1] read?
Answer: Its IC50 is 9.1 µM.

Question: Which IC50 [1] does the source give for `CC(C)(C)c1ccc(-c2ccc3c(C(=O)NC4CCNCC4)coc3c2)cc1` [Compound 13, 6-(4-(Tert-butyl)phenyl)-N-(piperidin-4-yl)benzofuran-3-carboxamide Hydrochloride] here?
Answer: Its IC50 is 5.1 µM.

Question: Which IC50 [1] does the source give for `CC(C)(C)c1ccc(-c2ccc3c(ccn3Cc3ccc(-c4ccncc4)cc3)c2)cc1` [Compound 5, 5-(4-(Tert-butyl)phenyl)-1-(4-(pyridin-4-yl)benzyl)-1H-indole Hydrochloride] here?
Answer: Its IC50 is greater than 50 µM.

Question: What about the “ZVpro IC50” value [1] of the same compound?
Answer: Its value is “inactive”.

Question: Which IC50 [1] does the source give for `CC(C)(C)c1ccc(-c2ccc3c(ccn3Cc3ccc(-c4ccoc4)cc3)c2)cc1` [Compound 4, 5-(4-(Tert-butyl)phenyl)-1-(4-(furan-3-yl)benzyl)-1H-indole Hydrochloride] here?
Answer: Its IC50 is greater than 50 µM.

Question: What about the “ZVpro IC50” value [1] of the same compound?
Answer: The value was “inactive”.

Question: Which results are given for `O=C(NCC1CCNCC1)c1cc2ccc(-c3ccoc3)cc2[nH]1` [Compound 66, 6-(Furan-3-yl)-N-(piperidin-4-ylmethyl)-1H-indole-2-carboxamide Hydrochloride]?
Answer: mode of inhibition against DV2pro [2]: non-competitive; log reduction of ZIKV replication in U87 cells (ZIKV-FLR in U87 cells; at 1 μM): 0.5 log; log reduction of ZIKV replication in U87 cells (ZIKV-FLR in U87 cells; at 10 μM): 2 log; mode of inhibition against ZVpro ([1]; IC50 vs substrate concentration 0.5 to 10 μM): non-competitive

Question: `O=C(NCC1CCNCC1)c1cc2ccc(-c3ccc(OC(F)(F)F)cc3)cc2[nH]1` [Compound 51, N-(Piperidin-4-ylmethyl)-6-(4-(trifluoromethoxy)phenyl)-1H-indole-2-carboxamide Hydrochloride] was tested. Which IC50 [1] did it give?
Answer: Its IC50 is 3.2 µM.

Question: With `O=Cc1cccc(-c2ccc3[nH]cc(C(=O)NCC4CCNCC4)c3c2)c1` [Compound 18, 5-(3-formylphenyl)-N-(piperidin-4-ylmethyl)-1H-indole-3-carboxamide Hydrochloride] as the compound, how does the IC50 [1] read?
Answer: Its IC50 is greater than 50 µM.
